How the values were obtained:
COLO 205 = test: Growth inhibition of human COLO205 cells after 48 hrs by sulforhodamine B assay; assay type: functional; conditions: COLO 205, 48 h
SF-268 = test: Growth inhibition of human SF268 cells after 48 hrs by sulforhodamine B assay; assay type: functional; conditions: SF-268, 48 h
M14 = test: Growth inhibition of human M14 cells after 48 hrs by sulforhodamine B assay; assay type: functional; conditions: M14, 48 h
OVCAR-4 = test: Growth inhibition of human OVCAR4 cells after 48 hrs by sulforhodamine B assay; assay type: functional; conditions: OVCAR-4, 48 h
NCI-H322M = test: Growth inhibition of human NCI-H322M cells after 48 hrs by sulforhodamine B assay; assay type: functional
NCI-H226 = test: Growth inhibition of human NCI-H226 cells after 48 hrs by sulforhodamine B assay; assay type: functional; conditions: NCI-H226, 48 h
Plasmodium falciparum [1] = test: Antimalarial activity after 72 hrs against chloroquine-sensitive Plasmodium falciparum D6 infected in erythrocytes by LDH assay; assay type: functional, organism-based; conditions: D6, 72 h
CAKI-1 = test: Growth inhibition of human Caki1 cells after 48 hrs by sulforhodamine B assay; assay type: functional; conditions: CAKI-1, 48 h
CCRF-CEM = test: Growth inhibition of human CCRF-CEM cells after 48 hrs by sulforhodamine B assay; assay type: functional
HCT-116 = test: Growth inhibition of human HCT116 cells after 48 hrs by sulforhodamine B assay; assay type: functional; conditions: HCT-116, 48 h
NCI-H460 = test: Growth inhibition of human NCI-H460 cells after 48 hrs by sulforhodamine B assay; assay type: functional; conditions: NCI-H460, 48 h
HL-60 = test: Growth inhibition of human HL-60(TB) cells after 48 hrs by sulforhodamine B assay; assay type: functional; conditions: HL-60, 48 h
MOLT-4 = test: Growth inhibition of human MOLT4 cells after 48 hrs by sulforhodamine B assay; assay type: functional; conditions: MOLT-4, 48 h
PC-3 = test: Growth inhibition of human PC3 cells after 48 hrs by sulforhodamine B assay; assay type: functional; conditions: PC-3, 48 h
SN12C = test: Growth inhibition of human SN12C cells after 48 hrs by sulforhodamine B assay; assay type: functional
NCI-H522 = test: Growth inhibition of human NCI-H522 cells after 48 hrs by sulforhodamine B assay; assay type: functional; conditions: NCI-H522, 48 h
LOX IMVI = test: Growth inhibition of human LOXIMVI cells after 48 hrs by sulforhodamine B assay; assay type: functional
OVCAR-5 = test: Growth inhibition of human OVCAR5 cells after 48 hrs by sulforhodamine B assay; assay type: functional; conditions: OVCAR-5, 48 h
[2] = Selectivity index, ratio of TC50 for african green monkey (Cercopithecus aethiops) Vero cells to IC50 for chloroquine-sensitive Plasmodium falciparum D6; assay type: toxicity, cell-based
[3] = Cytotoxicity against african green monkey Vero cells after 48 hrs by neutral red assay; assay type: cell-based; conditions: chlorocebus sabaeus, read-out: TC50
MDA-MB-435 = test: Growth inhibition of human MDA-MB-435 cells after 48 hrs by sulforhodamine B assay; assay type: functional; conditions: MDA-MB-435, 48 h
IGROV-1 = test: Growth inhibition of human IGROV1 cells after 48 hrs by sulforhodamine B assay; assay type: functional; conditions: IGROV-1, 48 h
U-251 = test: Growth inhibition of human U251 cells after 48 hrs by sulforhodamine B assay; assay type: functional; conditions: U-251, 48 h
EKVX = test: Growth inhibition of human EKVX cells after 48 hrs by sulforhodamine B assay; assay type: functional
SK-MEL-5 = test: Growth inhibition of human SK-MEL-5 cells after 48 hrs by sulforhodamine B assay; assay type: functional; conditions: SK-MEL-5, 48 h
RXF 393 = test: Growth inhibition of human RXF393 cells after 48 hrs by sulforhodamine B assay; assay type: functional; conditions: RXF 393, 48 h
UO-31 = test: Growth inhibition of human UO31 cells after 48 hrs by sulforhodamine B assay; assay type: functional; conditions: UO-31, 48 h
HCT-15 = test: Growth inhibition of human HCT15 cells after 48 hrs by sulforhodamine B assay; assay type: functional; conditions: HCT-15, 48 h
OVCAR-3 = test: Growth inhibition of human OVCAR-3 cells after 48 hrs by sulforhodamine B assay; assay type: functional; conditions: OVCAR-3, 48 h
HT-29 = test: Growth inhibition of human HT-29 cells after 48 hrs by sulforhodamine B assay; assay type: functional; conditions: HT-29, 48 h
SK-OV-3 = test: Growth inhibition of human SKOV3 cells after 48 hrs by sulforhodamine B assay; assay type: functional; conditions: SK-OV-3, 48 h
UACC-257 = test: Growth inhibition of human UACC257 cells after 48 hrs by sulforhodamine B assay; assay type: functional; conditions: UACC-257, 48 h
SK-MEL-2 = test: Growth inhibition of human SK-MEL-2 cells after 48 hrs by sulforhodamine B assay; assay type: functional; conditions: SK-MEL-2, 48 h
SNB-75 = test: Growth inhibition of human SNB75 cells after 48 hrs by sulforhodamine B assay; assay type: functional; conditions: SNB-75, 48 h
[4] = Growth inhibition of human […] cells after 48 hrs by sulforhodamine B assay; assay type: functional
T47D = test: Growth inhibition of human T47D cells after 48 hrs by sulforhodamine B assay; assay type: functional
Plasmodium falciparum [5] = test: Antimalarial activity after 72 hrs against chloroquine-resistant Plasmodium falciparum W2 infected erythrocytes by LDH assay; assay type: functional, organism-based; conditions: W2, 72 h
KM12 = test: Growth inhibition of human KM12 cells after 48 hrs by sulforhodamine B assay; assay type: functional; conditions: KM12, 48 h
K562 = test: Growth inhibition of human K562 cells after 48 hrs by sulforhodamine B assay; assay type: functional; conditions: K562, 48 h
MDA-N = test: Growth inhibition of human MDA-N cells after 48 hrs by sulforhodamine B assay; assay type: functional
Malme-3M = test: Growth inhibition of human MALME-3M cells after 48 hrs by sulforhodamine B assay; assay type: functional
HCC 2998 = test: Growth inhibition of human HCC2998 cells after 48 hrs by sulforhodamine B assay; assay type: functional; conditions: HCC 2998, 48 h
SW-620 = test: Growth inhibition of human SW620 cells after 48 hrs by sulforhodamine B assay; assay type: functional; conditions: SW-620, 48 h
ACHN = test: Growth inhibition of human ACHN cells after 48 hrs by sulforhodamine B assay; assay type: functional
OVCAR-8 = test: Growth inhibition of human OVCAR8 cells after 48 hrs by sulforhodamine B assay; assay type: functional; conditions: OVCAR-8, 48 h
SNB-19 = test: Growth inhibition of human SNB19 cells after 48 hrs by sulforhodamine B assay; assay type: functional; conditions: SNB-19, 48 h
MDA-MB-231 = test: Growth inhibition of human MDA-MB-231 cells after 48 hrs by sulforhodamine B assay; assay type: functional; conditions: MDA-MB-231, 48 h
UACC-62 = test: Growth inhibition of human UACC62 cells after 48 hrs by sulforhodamine B assay; assay type: functional; conditions: UACC-62, 48 h
NCI/ADR-RES = test: Growth inhibition of human NCI/ADR-RES cells after 48 hrs by sulforhodamine B assay; assay type: functional
BT-549 = test: Growth inhibition of human BT549 cells after 48 hrs by sulforhodamine B assay; assay type: functional; conditions: BT-549, 48 h
HOP-62 = test: Growth inhibition of human HOP62 cells after 48 hrs by sulforhodamine B assay; assay type: functional; conditions: HOP-62, 48 h
[6] = Selectivity index, ratio of TC50 for african green monkey (Cercopithecus aethiops) Vero cells to IC50 for chloroquine-resistant Plasmodium falciparum W2; assay type: toxicity, cell-based
MCF7 = test: Growth inhibition of human MCF7 cells after 48 hrs by sulforhodamine B assay; assay type: functional; conditions: MCF7, 48 h
SK-MEL-28 = test: Growth inhibition of human SK-MEL-28 cells after 48 hrs by sulforhodamine B assay; assay type: functional; conditions: SK-MEL-28, 48 h
HOP-92 = test: Growth inhibition of human HOP92 cells after 48 hrs by sulforhodamine B assay; assay type: functional; conditions: HOP-92, 48 h
[7] = Growth inhibition of human Hs 578T cells after 48 hrs by sulforhodamine B assay; assay type: functional
TK-10 = test: Growth inhibition of human TK10 cells after 48 hrs by sulforhodamine B assay; assay type: functional; conditions: TK-10, 48 h
NCI-H23 = test: Growth inhibition of human NCI-H23 cells after 48 hrs by sulforhodamine B assay; assay type: functional; conditions: NCI-H23, 48 h
SR = test: Growth inhibition of human SR cells after 48 hrs by sulforhodamine B assay; assay type: functional
786-0 = test: Growth inhibition of human 786-0 cells after 48 hrs by sulforhodamine B assay; assay type: functional; conditions: 786-0, 48 h
A498 = test: Growth inhibition of human A498 cells after 48 hrs by sulforhodamine B assay; assay type: functional; conditions: A498, 48 h
A549 = test: Growth inhibition of human A549 cells after 48 hrs by sulforhodamine B assay; assay type: functional; conditions: A549, 48 h

`C[C@H]1[C@H](OCCCCO[C@H]2O[C@@H]3O[C@@]4(C)CC[C@H]5[C@H](C)CC[C@@H]([C@H]2C)[C@@]35OO4)O[C@@H]2O[C@@]3(C)CC[C@H]4[C@H](C)CC[C@@H]1[C@@]24OO3` showed a GI50 (COLO 205) of 12 nM, a GI50 (SF-268) of 5620 nM and a GI50 (M14) of 148 nM. For the same compound, the GI50 (OVCAR-4) was 148 nM, the GI50 (NCI-H322M) was 16000 nM and the GI50 (NCI-H226) was 34 nM. It also gave an IC50 (Plasmodium falciparum [1]) of 17700 nM, a GI50 (CAKI-1) of 6560 nM and a GI50 (CCRF-CEM) of 15 nM. It also gave a GI50 (HCT-116) of 10 nM, a GI50 (NCI-H460) of 4230 nM and a GI50 (HL-60) of 12 nM. The GI50 (MOLT-4) was 8 nM, the GI50 (PC-3) was 11 nM and the GI50 (SN12C) was 210 nM. For the same compound, the GI50 (NCI-H522) was 16 nM, the GI50 (LOX IMVI) was 8 nM and the GI50 (OVCAR-5) was 65 nM. It also gave a selectivity ratio [2] of 43, a CC50 at 48 h [3] of over 764000 nM and a GI50 (MDA-MB-435) of 18 nM. The GI50 (IGROV-1) was 381 nM, the GI50 (U-251) was 25 nM and the GI50 (EKVX) was 44 nM. It also gave a GI50 (SK-MEL-5) of 115 nM, a GI50 (RXF 393) of 9800 nM and a GI50 (UO-31) of 22 nM. For the same compound, the GI50 (HCT-15) was 7 nM, the GI50 (OVCAR-3) was 203 nM and the GI50 (HT-29) was 15 nM. For the same compound, the GI50 (SK-OV-3) was 7210 nM, the GI50 (UACC-257) was 69 nM and the GI50 (SK-MEL-2) was 318 nM. For the same compound, the GI50 (SNB-75) was 8050 nM, the GI50 [4] was under 5 nM and the GI50 (T47D) was under 5 nM. For the same compound, the IC50 (Plasmodium falciparum [5]) was 14100 nM, the GI50 (KM12) was 12 nM and the GI50 (K562) was 12 nM. The GI50 (MDA-N) was 58 nM, the GI50 (Malme-3M) was 353 nM and the GI50 (HCC 2998) was 365 nM. For the same compound, the GI50 (SW-620) was 16 nM, the GI50 (ACHN) was 31 nM and the GI50 (OVCAR-8) was 47 nM. For the same compound, the GI50 (SNB-19) was 869 nM, the GI50 (MDA-MB-231) was 5070 nM and the GI50 (UACC-62) was 215 nM. It also gave a GI50 (NCI/ADR-RES) of 214 nM, a GI50 (BT-549) of 220 nM and a GI50 (HOP-62) of 42000 nM. For the same compound, the selectivity ratio [6] was over 54, the GI50 (MCF7) was 43 nM and the GI50 (SK-MEL-28) was 8820 nM. It also gave a GI50 (HOP-92) of 6400 nM, a GI50 [7] of 133 nM and a GI50 (TK-10) of 23 nM. For the same compound, the GI50 (NCI-H23) was 20 nM, the GI50 (SR) was under 5 nM and the GI50 (786-0) was 107 nM. The GI50 (A498) was 5770 nM and the GI50 (A549) was 35 nM.
